Experimental data published in ChEMBL document CHEMBL1268934, “Design, synthesis, and subtype selectivity of 3,6-disubstituted β-carbolines at Bz/GABA(A)ergic receptors. SAR and studies directed toward agents for treatment of alcohol abuse” (Bioorg Med Chem, 2010).

Assays:
Type in all cases: cell-based, HEK293
[1] = target: T1, GABA-A receptor; alpha-2/beta-3/gamma-2 (Homo sapiens, UniProt P18507+P28472+P47869); experiment: Displacement of [3H]flunitrazepam from human recombinant GABAA alpha-2-beta-3-gamma-2 receptor expressed in HEK cells by liquid scintillation counting
T1 sequence (P18507 whole entry): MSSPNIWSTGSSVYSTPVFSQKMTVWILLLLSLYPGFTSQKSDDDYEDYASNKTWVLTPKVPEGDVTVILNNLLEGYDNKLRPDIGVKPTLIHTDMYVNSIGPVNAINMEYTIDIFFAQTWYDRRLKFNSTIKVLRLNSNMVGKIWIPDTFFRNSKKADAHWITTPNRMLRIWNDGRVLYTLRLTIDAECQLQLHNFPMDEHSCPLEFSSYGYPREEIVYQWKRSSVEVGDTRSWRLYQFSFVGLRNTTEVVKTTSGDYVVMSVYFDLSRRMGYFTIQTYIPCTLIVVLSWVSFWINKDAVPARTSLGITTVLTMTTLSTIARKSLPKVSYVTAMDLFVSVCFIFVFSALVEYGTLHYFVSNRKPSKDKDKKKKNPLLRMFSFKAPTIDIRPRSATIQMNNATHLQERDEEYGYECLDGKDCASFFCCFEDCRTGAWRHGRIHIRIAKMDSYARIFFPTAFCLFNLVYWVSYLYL
T1 sequence (P28472 whole entry): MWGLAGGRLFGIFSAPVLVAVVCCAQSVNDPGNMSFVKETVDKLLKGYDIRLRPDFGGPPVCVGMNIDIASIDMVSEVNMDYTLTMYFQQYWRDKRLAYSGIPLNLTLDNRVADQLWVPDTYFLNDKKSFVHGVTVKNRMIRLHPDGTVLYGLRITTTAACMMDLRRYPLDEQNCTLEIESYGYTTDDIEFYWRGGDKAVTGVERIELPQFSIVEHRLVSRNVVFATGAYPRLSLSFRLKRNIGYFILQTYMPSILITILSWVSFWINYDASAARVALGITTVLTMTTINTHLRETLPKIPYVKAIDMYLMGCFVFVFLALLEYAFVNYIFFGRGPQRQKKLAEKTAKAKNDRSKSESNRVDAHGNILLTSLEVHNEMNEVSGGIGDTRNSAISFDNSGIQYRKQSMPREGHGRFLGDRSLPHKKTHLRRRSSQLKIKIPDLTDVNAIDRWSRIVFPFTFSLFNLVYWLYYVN
T1 sequence (P47869 whole entry): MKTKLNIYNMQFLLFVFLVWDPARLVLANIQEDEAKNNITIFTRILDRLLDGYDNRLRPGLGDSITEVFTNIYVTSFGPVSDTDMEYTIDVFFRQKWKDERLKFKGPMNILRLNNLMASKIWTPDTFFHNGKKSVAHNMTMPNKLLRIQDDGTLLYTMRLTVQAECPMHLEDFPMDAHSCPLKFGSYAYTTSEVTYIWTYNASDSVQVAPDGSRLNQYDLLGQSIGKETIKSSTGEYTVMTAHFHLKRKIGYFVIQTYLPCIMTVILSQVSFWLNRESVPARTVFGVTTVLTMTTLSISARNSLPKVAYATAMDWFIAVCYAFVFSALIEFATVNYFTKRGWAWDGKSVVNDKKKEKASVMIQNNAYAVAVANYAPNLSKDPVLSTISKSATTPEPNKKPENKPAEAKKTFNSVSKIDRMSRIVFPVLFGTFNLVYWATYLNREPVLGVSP

[2] = target: T2, GABA-A receptor; alpha-3/beta-3/gamma-2 (Homo sapiens, UniProt P18507+P28472+P34903); experiment: Displacement of [3H]flunitrazepam from human recombinant GABAA alpha-3-beta-3-gamma-2 receptor expressed in HEK cells by liquid scintillation counting
T2 sequence (P18507 whole entry): T1 sequence (P18507 whole entry)
T2 sequence (P28472 whole entry): T1 sequence (P28472 whole entry)
T2 sequence (P34903 whole entry): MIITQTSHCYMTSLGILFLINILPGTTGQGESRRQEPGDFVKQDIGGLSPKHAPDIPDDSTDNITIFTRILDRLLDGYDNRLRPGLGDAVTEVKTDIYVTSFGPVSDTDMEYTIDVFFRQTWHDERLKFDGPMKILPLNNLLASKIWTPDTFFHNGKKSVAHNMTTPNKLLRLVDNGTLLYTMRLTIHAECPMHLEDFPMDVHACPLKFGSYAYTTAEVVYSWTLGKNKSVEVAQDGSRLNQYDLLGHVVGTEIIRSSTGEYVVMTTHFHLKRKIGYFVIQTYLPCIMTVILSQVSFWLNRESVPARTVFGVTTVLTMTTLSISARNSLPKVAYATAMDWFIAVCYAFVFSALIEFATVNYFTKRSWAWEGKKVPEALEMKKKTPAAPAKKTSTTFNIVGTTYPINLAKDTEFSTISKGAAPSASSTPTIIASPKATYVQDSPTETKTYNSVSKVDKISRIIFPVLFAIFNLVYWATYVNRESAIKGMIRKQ

[3] = target: T3, GABA-A receptor; alpha-5/beta-3/gamma-2 (Homo sapiens, UniProt P18507+P28472+P31644); experiment: Displacement of [3H]flunitrazepam from human recombinant GABAA alpha-5-beta-3-gamma-2 receptor expressed in HEK cells by liquid scintillation counting
T3 sequence (P18507 whole entry): T1 sequence (P18507 whole entry)
T3 sequence (P28472 whole entry): T1 sequence (P28472 whole entry)
T3 sequence (P31644 whole entry): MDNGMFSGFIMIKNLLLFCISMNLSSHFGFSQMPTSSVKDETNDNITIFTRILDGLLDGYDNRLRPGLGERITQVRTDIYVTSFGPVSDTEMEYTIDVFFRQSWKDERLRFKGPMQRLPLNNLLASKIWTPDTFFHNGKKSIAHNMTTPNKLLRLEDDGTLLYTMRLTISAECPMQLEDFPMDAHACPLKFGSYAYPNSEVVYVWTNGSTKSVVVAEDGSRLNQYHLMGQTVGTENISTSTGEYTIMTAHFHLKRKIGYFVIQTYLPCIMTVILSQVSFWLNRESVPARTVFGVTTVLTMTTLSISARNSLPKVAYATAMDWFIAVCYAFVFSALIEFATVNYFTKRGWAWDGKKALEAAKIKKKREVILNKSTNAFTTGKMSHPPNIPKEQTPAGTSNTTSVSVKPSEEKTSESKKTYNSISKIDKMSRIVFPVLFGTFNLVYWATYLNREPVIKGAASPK

[4] = target: GABA-A receptor; alpha-6/beta-3/gamma-2 (Homo sapiens, UniProt P18507+P28472+Q16445); experiment: Displacement of [3H]flunitrazepam from human recombinant GABAA alpha-6-beta-3-gamma-2 receptor expressed in HEK cells by liquid scintillation counting
Sequence of GABA-A receptor; alpha-6/beta-3/gamma-2 (Q16445 whole entry, one chain of several): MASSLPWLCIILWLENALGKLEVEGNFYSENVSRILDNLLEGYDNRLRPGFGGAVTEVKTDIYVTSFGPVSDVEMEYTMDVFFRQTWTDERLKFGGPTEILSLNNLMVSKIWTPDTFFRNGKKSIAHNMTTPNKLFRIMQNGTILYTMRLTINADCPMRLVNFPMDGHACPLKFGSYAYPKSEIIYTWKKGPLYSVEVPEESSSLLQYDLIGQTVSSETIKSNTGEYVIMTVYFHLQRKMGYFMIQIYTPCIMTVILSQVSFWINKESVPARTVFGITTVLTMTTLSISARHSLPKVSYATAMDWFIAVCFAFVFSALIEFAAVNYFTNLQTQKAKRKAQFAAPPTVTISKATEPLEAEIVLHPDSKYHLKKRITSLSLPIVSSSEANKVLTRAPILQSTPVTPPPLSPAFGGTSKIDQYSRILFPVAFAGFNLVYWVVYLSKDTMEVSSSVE

[5] = target: T4, GABA-A receptor; alpha-1/beta-3/gamma-2 (Homo sapiens, UniProt P14867+P18507+P28472); experiment: Displacement of [3H]flunitrazepam from human recombinant GABAA alpha-1-beta-3-gamma-2 receptor expressed in HEK cells by liquid scintillation counting
T4 sequence (P14867 whole entry): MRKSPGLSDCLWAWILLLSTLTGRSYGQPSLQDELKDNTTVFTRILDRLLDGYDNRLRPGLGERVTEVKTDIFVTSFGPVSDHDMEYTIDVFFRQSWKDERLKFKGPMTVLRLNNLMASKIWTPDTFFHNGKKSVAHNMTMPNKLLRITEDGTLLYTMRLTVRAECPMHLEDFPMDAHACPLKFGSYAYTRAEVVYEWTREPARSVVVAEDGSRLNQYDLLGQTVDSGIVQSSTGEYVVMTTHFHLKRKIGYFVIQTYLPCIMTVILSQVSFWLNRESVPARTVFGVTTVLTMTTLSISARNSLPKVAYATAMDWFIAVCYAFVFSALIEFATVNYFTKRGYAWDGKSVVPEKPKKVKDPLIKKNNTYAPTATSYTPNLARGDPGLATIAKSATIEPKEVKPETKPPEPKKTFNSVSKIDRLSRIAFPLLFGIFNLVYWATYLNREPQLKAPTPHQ
T4 sequence (P18507 whole entry): T1 sequence (P18507 whole entry)
T4 sequence (P28472 whole entry): T1 sequence (P28472 whole entry)

[6] = target: GABA A receptor alpha-4/beta-3/gamma-2 (Homo sapiens, UniProt P18507+P28472+P48169); experiment: Displacement of [3H]flunitrazepam from human recombinant GABAA alpha-4-beta-3-gamma-2 receptor expressed in HEK cells by liquid scintillation counting; details: hek293
Sequence of GABA A receptor alpha-4/beta-3/gamma-2 (P48169 whole entry, one chain of several): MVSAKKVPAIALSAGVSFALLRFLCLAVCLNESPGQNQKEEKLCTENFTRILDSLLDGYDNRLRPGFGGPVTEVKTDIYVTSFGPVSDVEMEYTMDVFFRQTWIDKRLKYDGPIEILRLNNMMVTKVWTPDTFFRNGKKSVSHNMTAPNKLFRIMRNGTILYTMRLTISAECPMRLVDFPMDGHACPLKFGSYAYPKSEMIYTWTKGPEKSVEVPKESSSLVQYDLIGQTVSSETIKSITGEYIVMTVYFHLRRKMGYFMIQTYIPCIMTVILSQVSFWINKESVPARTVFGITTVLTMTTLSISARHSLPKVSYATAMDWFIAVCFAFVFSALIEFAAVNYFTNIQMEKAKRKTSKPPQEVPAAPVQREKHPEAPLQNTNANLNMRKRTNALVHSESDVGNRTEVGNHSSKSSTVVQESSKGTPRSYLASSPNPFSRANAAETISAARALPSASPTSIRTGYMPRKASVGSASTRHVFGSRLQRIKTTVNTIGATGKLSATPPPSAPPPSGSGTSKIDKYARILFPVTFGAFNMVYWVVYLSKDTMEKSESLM

Row | Compound | Ki [1] [nM] | Ki [2] [nM] | Ki [3] [nM] | Ki [4] [nM] | Ki [5] [nM] | Ki [6]
1 | CC(C)CCOc1cc2c3ccccc3nc-2c[nH]1 | 3000 | 3000 | 3000 | 10000 | – | –
2 | CC(C)(C)OC(=O)c1cc2c(cn1)[nH]c1ccc(C(C)(C)C)cc12 | 8.93 | 24.5 | 7.49 | – | 2.78 | –
3 | CC(C)(C)OC(=O)c1cc2c(cn1)[nH]c1ccc(-c3ccco3)cc12 | 13 | 27.5 | 163 | – | 2.4 | Not Active
4 | CC(C)(C)OC(=O)c1cc2c3cc(I)ccc3n(C(=O)OC(C)(C)C)c2cn1 | – | – | 1850 | – | – | –
5 | O=C(Oc1cc(F)c(F)cc1F)c1cc2c(cn1)[nH]c1ccccc12 | 177 | 44.8 | 422 | – | 22 | –
6 | O=C(OCC(Cl)(Cl)Cl)c1cc2c(cn1)[nH]c1ccccc12 | 33 | 43 | 189 | – | 10 | –
7 | CC(C)(C)OC(=O)c1cc2c(cn1)[nH]c1ccc(-c3cccs3)cc12 | 166 | 314 | 2860 | – | 37 | Not Active
8 | CCC(C)OC(=O)c1cc2c(cn1)[nH]c1ccccc12 (single isomer, unassigned) | – | – | – | – | – | Not Active
9 | CC(C)(C)OC(=O)c1cc2c(cn1)[nH]c1ccc(F)cc12 | 4.54 | 14.7 | 4.61 | – | 1.62 | –
10 | CC(OC(=O)c1cc2c(cn1)[nH]c1ccccc12)c1ccccc1 (stereo not drawn) | – | – | – | – | 33.5 | –
11 | C#Cc1ccc2[nH]c3cnc(C(=O)OC(C)(C)C)cc3c2c1 | – | – | – | 1980 | 0.972 | –
12 | O=C(OCC(F)(F)F)c1cc2c(cn1)[nH]c1ccc(-c3ccccc3)cc12 | 137 | 125 | 299 | – | 25 | –
13 | CCCCOc1cc2c(cn1)[nH]c1ccccc12 | – | – | – | 1000 | – | –
14 | O=C(OC(C(F)(F)F)C(F)(F)F)c1cc2c(cn1)[nH]c1ccc(I)cc12 | 301 | 131 | 681 | – | 78 | –
15 | CC(C)(C)OC(=O)c1ccc2[nH]c3ccc(C#Cc4ccc5[nH]c6ccc(C(=O)OC(C)(C)C)cc6c5c4)cc3c2c1 | 124 | 100 | > 300 | > 4000 | 30 | –
16 | CCOC(=O)c1cc2c(cn1)[nH]c1ccc(C#C[Si](C)(C)C)cc12 | 4.5 | 5.58 | 47 | – | 4.4 | –
